The values below come from patent publication US6399574B1 (priority 1997, dated 2002).

Test [1] addresses T1, NR1-1b/NR2B NMDA subtype (Homo sapiens, UniProt Q05586+Q13224).
T1 construct: expressed in transfected cells; host or cells: oocytes
In kind it is cell-based.

Test [2] deals with T2, NR1. 1B subtype (Homo sapiens, UniProt Q05586).
T2 construct: expressed in transfected cells; host or cells: oocytes
In kind it is cell-based.

For test [3], the system named is Frings audiogenic seizure susceptible mice. The settings on record: mouse, in vivo.

Where a SMILES comes first, the peptide text is derived from it. [ ]: non-standard residue; d: D form. Gla = N[C@@H](CC(C(=O)O)C(=O)O)C(=O)O

T1 sequence (Q13224 27-1484, other chains not shown): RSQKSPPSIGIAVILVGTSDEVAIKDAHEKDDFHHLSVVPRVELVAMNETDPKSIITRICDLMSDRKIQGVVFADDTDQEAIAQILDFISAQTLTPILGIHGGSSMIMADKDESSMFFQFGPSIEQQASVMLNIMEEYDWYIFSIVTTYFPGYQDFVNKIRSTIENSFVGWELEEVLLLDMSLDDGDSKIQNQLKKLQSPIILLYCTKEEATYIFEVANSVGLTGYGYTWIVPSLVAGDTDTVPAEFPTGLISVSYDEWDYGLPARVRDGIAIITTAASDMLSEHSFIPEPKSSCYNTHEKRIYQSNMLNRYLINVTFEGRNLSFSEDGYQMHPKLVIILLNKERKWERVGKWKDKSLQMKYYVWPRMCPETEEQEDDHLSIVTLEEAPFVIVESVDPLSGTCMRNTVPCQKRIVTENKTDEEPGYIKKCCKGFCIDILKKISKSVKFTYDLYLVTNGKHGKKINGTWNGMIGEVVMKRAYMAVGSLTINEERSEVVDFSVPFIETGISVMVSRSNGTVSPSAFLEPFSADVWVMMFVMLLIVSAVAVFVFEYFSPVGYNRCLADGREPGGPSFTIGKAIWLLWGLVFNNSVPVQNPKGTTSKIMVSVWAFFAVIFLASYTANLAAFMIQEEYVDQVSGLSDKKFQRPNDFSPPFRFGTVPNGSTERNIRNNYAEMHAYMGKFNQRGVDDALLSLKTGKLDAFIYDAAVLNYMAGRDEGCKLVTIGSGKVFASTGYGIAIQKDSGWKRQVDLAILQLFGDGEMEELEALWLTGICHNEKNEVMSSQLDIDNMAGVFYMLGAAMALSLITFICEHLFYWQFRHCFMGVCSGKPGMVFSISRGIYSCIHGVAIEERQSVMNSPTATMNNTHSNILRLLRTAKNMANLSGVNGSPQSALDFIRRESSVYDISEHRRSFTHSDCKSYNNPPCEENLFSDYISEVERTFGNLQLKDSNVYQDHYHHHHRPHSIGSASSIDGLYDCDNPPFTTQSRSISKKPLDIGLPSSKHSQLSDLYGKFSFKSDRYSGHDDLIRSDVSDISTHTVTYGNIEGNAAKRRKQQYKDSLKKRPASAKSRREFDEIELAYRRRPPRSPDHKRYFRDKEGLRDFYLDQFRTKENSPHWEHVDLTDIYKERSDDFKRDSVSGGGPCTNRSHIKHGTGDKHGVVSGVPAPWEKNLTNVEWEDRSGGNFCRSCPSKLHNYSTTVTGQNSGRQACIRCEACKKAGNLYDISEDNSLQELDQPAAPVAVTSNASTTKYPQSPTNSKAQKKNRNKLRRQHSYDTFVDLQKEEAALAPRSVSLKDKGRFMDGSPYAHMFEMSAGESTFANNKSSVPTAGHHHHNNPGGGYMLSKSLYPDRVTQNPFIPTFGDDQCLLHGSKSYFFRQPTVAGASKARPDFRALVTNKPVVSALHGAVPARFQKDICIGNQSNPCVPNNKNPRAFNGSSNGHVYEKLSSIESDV

`CC[C@H](C)[C@H](NC(=O)[C@H](CC(N)=O)NC(=O)[C@H](CC(C(=O)O)C(=O)O)NC(=O)[C@H](CCCNC(=N)N)NC(=O)[C@H](C)NC(=O)[C@H](CC(C)C)NC(=O)[C@H](CC(C(=O)O)C(=O)O)NC(=O)[C@H](C)NC(=O)[C@H](C)NC(=O)[C@H](CCSC)NC(=O)[C@H](CCCCN)NC(=O)[C@H](C)NC(=O)[C@@H](NC(=O)[C@H](CC(C(=O)O)C(=O)O)NC(=O)[C@H](CC(C(=O)O)C(=O)O)NC(=O)[C@H](CCC(=O)O)NC(=O)CN)C(C)C)C(=O)N[C@@H](C)C(=O)N[C@@H](CCCCN)C(=O)NCC(=O)N[C@H]1CSSC[C@@H](C(=O)N[C@@H](Cc2ccc(O)cc2)C(=O)N2CCC[C@H]2C(=O)O)NC(=O)[C@H](CC(N)=O)NC(=O)[C@H](C(C)C)NC(=O)[C@H](CCCCN)NC1=O` [Con R]: in test [1], the “affinity for NR1-1b/NR2B relative to NR1-1b/NR2D” value was “greater than 50 fold”; the “inhibition of the current produced in response to glutamate and glycine” value was “approximately 95%”; the “selectivity for the B splice variant in heteromeric complexes” value was “selective for the B splice variant”. Further, the “inhibition of homomeric NR1 complex, 1B subtype” value in test [2] is reported as “only inhibited the NR1. 1B subtype”.

In the case of `CSCC[C@H](NC(=O)[C@H](CCCCN)NC(=O)[C@H](CCC(N)=O)NC(=O)[C@H](Cc1ccc(O)cc1)NC(=O)[C@H](CC(C(=O)O)C(=O)O)NC(=O)[C@H](CC(C(=O)O)C(=O)O)NC(=O)[C@H](CCC(=O)O)NC(=O)CN)C(=O)N[C@@H](CC(C)C)C(=O)N[C@@H](CC(C(=O)O)C(=O)O)C(=O)N[C@@H](CC(N)=O)C(=O)N[C@@H](CC(C)C)C(=O)N[C@@H](CCCNC(=N)N)C(=O)N[C@@H](CC(C(=O)O)C(=O)O)C(=O)N[C@@H](C)C(=O)N[C@@H](CCC(=O)O)C(=O)N[C@H](C(=O)N[C@@H](CCCCN)C(=O)N[C@@H](CCCCN)C(=O)N[C@@H](CC(N)=O)C(=O)N[C@@H](C)C(N)=O)C(C)C` [Con T, Gly-Glu-Xaa1-Xaa1-Tyr-Gln-Lys-Met-Leu-Xaa2-Asn-Leu-Arg-Xaa2-Ala-Glu-Val-Lys-Lys-Asn-Ala] (H-GE[Gla][Gla]YQKML[Gla]NLR[Gla]AEVKKNA-NH2), in test [3], the ED50 was 0.017 nmols and the “ED50 (pmol, i.c.v.)” value amounted to 5.1 pmol.
